Results published in ChEMBL document CHEMBL1145615, “A refined pharmacophore model for HIV-1 integrase inhibitors: Optimization of potency in the 1H-benzylindole series” (Bioorg Med Chem Lett, 2008).

Experiments:
[1] = Cytotoxicity against human MT4 cells; type: cell-based
[2] = tested on: Human immunodeficiency virus 1; assay: Antiviral activity against HIV1 3B assessed as inhibition of viral-induced cytopathic effect in human MT4 cells; type: functional, organism-based; details: Human immunodeficiency virus 1, 3B
[3] = target: T1, Human immunodeficiency virus type 1 integrase (Human immunodeficiency virus 1, UniProt Q7ZJM1)
Description: Inhibition of HIV1 integrase strand transfer activity

[4] = Selectivity index, ratio of CC50 for human MT4 cells to EC50 for HIV1 3B; type: functional
[5] = target: T1, Human immunodeficiency virus type 1 integrase; remark: listed apart in the source
Description: Inhibition of HIV1 integrase

T1 sequence (Q7ZJM1 whole entry): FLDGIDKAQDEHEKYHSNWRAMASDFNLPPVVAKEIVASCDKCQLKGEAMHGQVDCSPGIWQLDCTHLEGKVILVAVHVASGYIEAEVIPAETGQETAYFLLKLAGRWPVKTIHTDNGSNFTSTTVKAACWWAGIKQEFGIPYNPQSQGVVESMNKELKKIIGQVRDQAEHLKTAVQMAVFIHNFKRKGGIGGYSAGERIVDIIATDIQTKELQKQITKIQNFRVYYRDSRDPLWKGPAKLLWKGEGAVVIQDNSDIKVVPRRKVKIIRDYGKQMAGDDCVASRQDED

SMILES | CC50 [1] | EC50 [2] | IC50 [3] | Ratio CC50/EC50 [4] | IC50 [5]
COc1cc2c(cc1Cc1cccc(Cl)c1F)c(=O)c(C(=O)O)cn2[C@H](CO)C(C)C | 2.12 µM | 0.0008 µM | – | – | –
Cc1nnc(C(=O)NC(C)(C)c2nc(C(=O)NCc3ccc(F)cc3)c(O)c(=O)n2C)o1 | > 18 µM | 0.013 µM | – | – | –
COc1cccc2c1c(C(=O)/C=C(\O)C(=O)O)cn2Cc1ccc(F)cc1 | 41.1 µM | – | 140 nM | 70 | 80 nM
O=C(O)/C(O)=C/C(=O)c1cn(Cc2ccc(F)cc2)c2ccccc12 | 64.1 µM | 8.35 µM | 2330 nM | 8 | 860 nM
COc1ccc(OC)c2c1c(C(=O)/C=C(\O)C(=O)O)cn2Cc1ccc(F)cc1 | 213 µM | 2.13 µM | 30 nM | 100 | 60 nM
CCOC(=O)/C(O)=C/C(=O)c1cn(Cc2ccc(F)cc2)c2c(OC)ccc(OC)c12 | 81.1 µM | 4.09 µM | 660 nM | 20 | 1240 nM
CCOC(=O)/C(O)=C/C(=O)c1cn(Cc2ccc(F)cc2)c2cc(OC)ccc12 | 100 µM | > 100 µM | 2340 nM | <1 | 1960 nM
COc1ccc2c(C(=O)/C=C(\O)C(=O)O)cn(Cc3ccc(F)cc3)c2c1 | 66 µM | 8.39 µM | 220 nM | 8 | 190 nM
COc1cccc2c(C(=O)/C=C(\O)C(=O)O)cn(Cc3ccc(F)cc3)c12 | 82.9 µM | 7.04 µM | 190 nM | 12 | 270 nM
CCOC(=O)/C(O)=C/C(=O)c1cn(Cc2ccc(F)cc2)c2cccc(OC)c12 | 74 µM | 3.17 µM | 92300 nM | 24 | 86100 nM
CCOC(=O)/C(O)=C/C(=O)c1cn(Cc2ccc(F)cc2)c2c(OC)cccc12 | > 100 µM | > 100 µM | 2640 nM | – | 4760 nM
CCOC(=O)/C(O)=C/C(=O)c1cn(Cc2ccc(F)cc2)c2ccc(OC)cc12 | 126 µM | 11.5 µM | 7550 nM | 11 | 4600 nM
COc1ccc2c(c1)c(C(=O)/C=C(\O)C(=O)O)cn2Cc1ccc(F)cc1 | 63.6 µM | 5.63 µM | 270 nM | 12 | 300 nM
